{"source": "patent US20230340440A1", "about": "“GENETIC MANIPULATION METHOD IN BACTERIA” (University of Washington, priority 2022, published 2023)", "key": {"[1]": {"system": "XylS-Pm-dCas9", "experiment": "tunable CRISPRa/CRISPRi in inducible-dCas9 strain (PPC08), J3-BBa_J23110-mRFP reporter", "type": "cell-based, P. putida", "excerpt": "FIGS. 5A-5B show CRISPRa with endogenous promoters and inducible CRISPRa/CRISPRi in P. putida. The putative promoter sequences between two open reading frames (ORFs) with 60 bp flanking sequences were incorporated into the mRFP reporter (FIG. 5A). scRNAs were introduced for all potentially activable target sites corresponding to the effective distances as tested in FIGS. 2B & 2C. Precise distances from the target site to the TSS are listed in Table 5. hAAVS1 was used as an off-target scRNA for all ten promoters. […] The inducible-dCas9 strain yielded 3-fold activation with CRISPRa or 7-fold repression with CRISPRi at 1 mM m-toluic acid compared to the no-inducer control. Fold-changes compared to the off-target control were 4-fold and 5-fold, respectively. […] Values represent the mean ± standard deviation calculated from n = 3 independent biological replicates.\n(§1) Fluorescence measurements of reporter gene expression were carried out either by flow cytometry or plate reader. Single colonies from LB plates were inoculated in 500 µL of EZ-RDM (Teknova) supplemented with the appropriate antibiotics and grown in 96-deep-well plates at 30° C. with shaking overnight 225 rpm. For small-molecule induction, overnight cultures were diluted 100-fold into a new culture with appropriate antibiotics and inducers, then shaken overnight at 30° C., 225 rpm. For flow cytometry, overnight cultures were diluted 1:50 in Dulbecco’s phosphate-buffered saline (PBS) and analyzed on a MACSQuant VYB flow cytometer with the MACSQuantify 2.8 software (Miltenyi Biotec) using the methods and instruments settings as described (Dong et al., 2018. Synthetic CRISPR-Cas gene activators for transcriptional reprogramming in bacteria. Nat Commun 9, 2489). For plate reader measurements, 150 µL of overnight culture were transferred into a flat, clear-bottomed black 96-well plate. OD600 and fluorescence values were measured in a Biotek Synergy HTX plate reader and analyzed using the BioTek Gen5 2.07.17 software. For mRFP1 detection, the excitation wavelength was 540 nm and emission wavelength was 600 nm. For sfGFP detection, the excitation wavelength was 485 nm and the emission wavelength was 528 nm. Data were plotted using Prism (GraphPad).\nA reporter with either an activating scRNA or a repressing sgRNA was delivered to the inducible dCas9 strain (PPC08) and 3-fold activation with CRISPRa or 7-fold repression with CRISPRi at 1 mM m-toluic acid (FIG. 5B) was observed. […] By targeting CRISPRi and CRISPRa to the same locus, we may be able to obtain lower basal expression and higher induced expression. […]"}, "[2]": {"system": "XylS-Pm promoters regulating dCas9 and/or MCP-SoxS", "experiment": "inducible CRISPRa by XylS-Pm on CRISPRa machinery, J3-BBa_J23117-mRFP reporter (pPPC020)", "type": "cell-based, P. putida", "details": "for fold-activation in the presence of inducer: J306 scRNA", "excerpt": "FIGS. 18A-18B show inducible CRISPRa by XylS-Pm on CRISPRa machinery. Inducible dCas9/MCP-SoxS constructs were integrated into the P. putida genome with the mini-Tn7 method (FIG. 18A). XylS-Pm promoters were introduced in place of the Sp.pCas9 promoter regulating dCas9 and/or the BBa_J23107 promoter for MCP-SoxS. Strains were transformed with a vector (pPPC020) carrying either an off-target scRNA or a J306 scRNA (FIG. 18B). The fold-activation in the presence of m-toluic acid as an inducer are 9-fold, 5-fold, and 10-fold from PPC08, PPC09, and PPC10, respectively. […] If only MCP-SoxS is under control of the inducible promoter, leaky activation is detectable. In a strain with constitutively expressed CRISPRa machinery that should not be responsive to inducer, high inducer concentrations (5 mM) also led to a modest increase in mRFP expression (1.3-fold). Values represent the mean ± standard deviation calculated from n = 3 independent biological replicates.\nas §1, with “For sfGFP detection, the excitation wavelength was 485 nm and the emission wavelength was 528 nm. Data were plotted using Prism (GraphPad).” left out\nTo tune expression levels with CRISPRa and CRISPRi, the CRISPR system components were placed under the control of a small-molecule inducible promoter. dCas9 and/or MCP-SoxS were expressed using XylS-Pm, an inducible promoter system from the P. putida mt-2 toluene degradation pathway (Wirth et al., 2019. Accelerated genome engineering of Pseudomonas putida by I-SceI-mediated recombination and CRISPR-Cas9 counterselection. Microb Biotechnol). […] In all three inducible strains assessed, tunable gene activation as a function of inducer concentration was observed (FIG. 18B). […]"}, "[3]": {"system": "XylS-Pm promoter", "experiment": "inducible XylS-Pm-mediated activation of an mRFP reporter gene", "type": "cell-based, P. putida KT2440", "details": "1 mM m-toluic acid compared to the no inducer condition", "method": "(§2) FIGS. 17A-17C show inducible promoters in P. putida (FIG. 17A). Inducible LacI-Ptrc-mediated activation of an mRFP reporter gene in P. putida KT2440 with 0-1 mM IPTG. A 13-fold activation at 1 mM IPTG was observed compared to the no inducer condition. Inducible XylS-Pm-mediated activation of an mRFP reporter gene in P. putida KT2440 with 0-5 mM m-toluic acid (FIG. 17B). […] The XylS-Pm promoter provides a better dynamic range compared to LacI-Ptrc promoter mainly due to its relatively low basal expression. mRFP reporter gene fluorescence distributions measured by flow cytometry (FIG. 17C). […] Values in FIG. 17A represent the mean ± standard deviation calculated from n = 6 independent biological replicates. Values in FIG. 17B represent the mean ± standard deviation calculated from n = 3 independent biological replicates. […]\n(§3) Fluorescence measurements of reporter gene expression were carried out either by flow cytometry or plate reader. […] For flow cytometry, overnight cultures were diluted 1:50 in Dulbecco’s phosphate-buffered saline (PBS) and analyzed on a MACSQuant VYB flow cytometer with the MACSQuantify 2.8 software (Miltenyi Biotec) using the methods and instruments settings as described (Dong et al., 2018. Synthetic CRISPR-Cas gene activators for transcriptional reprogramming in bacteria. Nat Commun 9, 2489). […]"}, "[4]": {"system": "LacI-Ptrc promoter", "experiment": "inducible LacI-Ptrc-mediated activation of an mRFP reporter gene", "type": "cell-based, P. putida KT2440", "details": "1 mM IPTG compared to the no inducer condition", "method": "as §2, §3"}, "[5]": {"details": "1 mM m-toluic acid compared to the no-inducer control"}, "[6]": {"details": "1 mM m-toluic acid compared to the off-target control"}}, "data": [{"smiles": "Cc1cccc(C(=O)O)c1", "note": "[m-toluic acid]", "values": [{"measurement": "activation with CRISPRa", "setting": "[1]; [5]", "result": 3, "unit": "fold"}, {"measurement": "repression with CRISPRi", "setting": "[1]; [5]", "result": 7, "unit": "fold"}, {"measurement": "fold-change with CRISPRa", "setting": "[1]; [6]", "result": 4, "unit": "fold"}, {"measurement": "fold-change with CRISPRi", "setting": "[1]; [6]", "result": 5, "unit": "fold"}, {"measurement": "increase in mRFP expression", "setting": "[2]; 5 mM inducer, strain with constitutively expressed CRISPRa machinery", "result": 1.3, "unit": "fold"}, {"measurement": "fold-activation in the presence of inducer", "setting": "[2]; strain PPC08 (inducible dCas9)", "result": 9, "unit": "fold"}, {"measurement": "fold-activation in the presence of inducer", "setting": "[2]; strain PPC09 (inducible MCP-SoxS)", "result": 5, "unit": "fold"}, {"measurement": "fold-activation in the presence of inducer", "setting": "[2]; strain PPC10 (dCas9 and MCP-SoxS inducible)", "result": 10, "unit": "fold"}, {"measurement": "activation of mRFP reporter (XylS-Pm)", "setting": "[3]", "result": "> 300", "unit": "fold"}]}, {"smiles": "CC(C)S[C@@H]1O[C@H](CO)[C@H](O)[C@H](O)[C@H]1O", "note": "[IPTG]", "values": [{"measurement": "activation of mRFP reporter (LacI-Ptrc)", "setting": "[4]", "result": 13, "unit": "fold"}]}]}
